For assay [1], the system named is Pseudomonas aeruginosa host bacteria. Description: Drug resistance of host bacteria. Type of assay: cell-based.
For assay [2], the system named is Pseudomonas aeruginosa phage vB_PaeP_GZMU_A1002. In words: Effect of allicin on phage potency. Conditions: incubated 37° C. 3 h, paired sample T test, 0.05 level, FIG. 3. The method, then: The solution of Pseudomonas aeruginosa phage vB_PaeP_GZMU_A1002 is diluted to a certain extent, and 100 μL of the diluted phage is mixed with 100 μL of the host bacteria and incubated at 37° C. for 15 min. The incubation solution is mixed with 0.7% semisolid LB agar, spread evenly on top of 1.5% solid LB agar spread on a Petri dish in advance, and cultured in a constant temperature incubator at 37° C. for 8 h or overnight. After the culture, a number of light-transmitting plaques may be seen in the Petri dish. A number of light-transmissive phage spots are visible in the petri dish after incubation, and the optimal view is selected to have 30-300 phage spots in the field of view, and the potency is calculated as potency=(10×number of phage spots)/dilution.
The Pseudomonas aeruginosa phage vB_PaeP_GZMU_A1002 is diluted to 10-8, and 100 μL of phage is mixed with 100 μL of allicin. At the same time, 100 μL of phage is mixed with 100 μL of LB as the control group, which is repeated in parallel for three times, mixed and incubated at 37° C. for 3 h, and then the potency is measured.
In this embodiment, paired sample T test is used to determine whether allicin has an effect on phage titer.

For assay [3], the system named is Pseudomonas aeruginosa. In words: Bacteriostasis effect of phage in combination with allicin (combination experiment, OD600, FIC index). Type of assay: cell-based. As for the experimental part:
(§1) The allicin is diluted to 7.5 mg/mL, 3.75 mg/mL, 0.375 mg/mL, 0.0375 mg/mL, 0.00375 mg/mL and 0.000375 mg/mL respectively, and the phage is diluted to 3×10^4 pfu/mL, 3×10^3 pfu/mL, 3×10^2 pfu/ml, and 3×10^1 pfu/ml respectively, and the host bacteria are diluted to 3×10^5 cfu/mL; allicin, phage, and host bacteria are aspirated 50 μL each and added into each well of the 96-well plate, then the OD600 value is measured, the OD600 value is measured again after overnight shaker incubation at 37° C. and 220 rpm, and the absorbance change value is calculated to determine the inhibition effect on the bacteria.
In the combination experiment, the bacteriostatic effect of allicin in different concentrations (i.e. allicin alone) is calculated and analyzed when the phage concentration is 0 pfu/mL.
In the combination experiment, the bacteriostatic effect of phages with different concentrations (that is, phages alone) is calculated and analyzed when the concentration of allicin is 0 μg/mL.
Different concentrations of allicin and phage are mixed in a 96-well plate by broth dilution method, and the OD600 value is measured. After overnight shaking table culture at 37° C. and 220 rpm, the OD600 value is measured again, and the chart is drawn.
Judging the combination effect according to the fractional inhibitory concentration (FIC) index^[6]: FIC=MIC (in combination with group A)/MIC (group A used alone)+MIC (in combination with group B)/MIC (group B used alone).
FIC index interpretation criteria: when the FIC index is less than 0.5, the two drugs are synergistic; when the FIC index is 0.5-1, the two drugs are mutually additive; when the FIC index is greater than 1 and less than 2, the two drugs are unrelated; when the FIC index is greater than 2, the two drugs are antagonistic.

Assay [4] concerns Pseudomonas aeruginosa. Description: Measurement of the minimum inhibitory concentration (micro broth dilution method). It is filed as cell-based. Conditions: allicin alone, preliminary experiment, FIG. 1. As for the experimental part:
as §1
After the experiment, the experimental results are shown in FIG. 2, and the MIC of phage is 1×10^3 pfu/mL.

≈ marks a conversion by molar mass, not a printed value.

For the molecule `O=C(O)c1cn(C2CC2)c2cc(N3CCNCC3)c(F)cc2c1=O` [Ciprofloxacin], the “Drug resistance of host bacteria” value in assay [1] (strain B- P. aeruginosa-029), in assay [1] (strain B- P. aeruginosa-035), in assay [1] (strain B- P. aeruginosa-037), in assay [1] (strain B- P. aeruginosa-041), in assay [1] (strain B- P. aeruginosa-042) and in assay [1] (strain B-P. AERUGINOSA-027) was “Resistant” throughout. The “Drug resistance of host bacteria” value in assay [1] (strain P. aeruginosa-25) and in assay [1] (strain P. aeruginosa-29) was “Resistant” throughout.
Regarding `NC[C@H]1O[C@H](O[C@H]2[C@H](O)[C@@H](O[C@H]3O[C@H](CO)[C@@H](O)[C@H](N)[C@H]3O)[C@H](N)C[C@@H]2N)[C@H](N)C[C@@H]1O` [Tobramycin], the “Drug resistance of host bacteria” value in assay [1] (strain P. aeruginosa-29) is “Resistant”.
As for `C=CCS[S+]([O-])CC=C` (centres unmarked) [allicin], in assay [2], the “effect of allicin on phage potency (titer)” value is reported as “no negative effect”. Besides, the MIC in assay [3] (Pseudomonas aeruginosa, combination experiment, phage concentration 0 pfu/mL, FIG. 4, read-out: MIC of allicin alone) worked out at 1250 µg/mL; in assay [4], 1250 µg/mL (≈ 7.7 mM). Moreover, the OD600 result in assay [3] (allicin alone 1.25 mg/mL, FIG. 4) is listed as “about 0”. Further, in assay [3] (allicin with phage), the “decrease of amount when used in combination as compared to singly” value is reported as “three orders of magnitude”. In addition, in assay [3] (in combination with 1×10^2 pfu/mL phage, FIG. 6), the “best combination dosage, allicin” value was determined as 1.25 µg/mL. Besides, the “optimal concentration for combination, allicin” value in assay [3] (with 1×10^2 pfu/mL phage, FIG. 6) is 1/1000.
For the molecule `C[C@H]1[C@H](NC(=O)/C(=N\OC(C)(C)C(=O)O)c2csc(N)n2)C(=O)N1S(=O)(=O)O` [Aztreonam], the “Drug resistance of host bacteria” value in assay [1] (strain B- P. aeruginosa-029), in assay [1] (strain B- P. aeruginosa-037), in assay [1] (strain P. aeruginosa-2 (r74)), in assay [1] (strain P. aeruginosa-4), in assay [1] (strain P. aeruginosa-13) and in assay [1] (strain P. aeruginosa-14) was “Resistant” each time. The “Drug resistance of host bacteria” value in assay [1] (strain P. aeruginosa-22), in assay [1] (strain P. aeruginosa-25), in assay [1] (strain P. aeruginosa-26), in assay [1] (strain P. aeruginosa-27), in assay [1] (strain P. aeruginosa-30) and in assay [1] (strain P. aeruginosa′-3) was “Resistant” in each case. Also, the “Drug resistance of host bacteria” value in assay [1] (strain P. aeruginosa′-4), in assay [1] (strain P. aeruginosa′-5) and in assay [1] (strain P. aeruginosa′-10) was “Resistant” in each case.
In the case of `NCC[C@H](O)C(=O)N[C@@H]1C[C@H](N)[C@@H](O[C@H]2O[C@H](CN)[C@@H](O)[C@H](O)[C@H]2O)[C@H](O)[C@H]1O[C@H]1O[C@H](CO)[C@@H](O)[C@H](N)[C@H]1O` [Amikacin], the “Drug resistance of host bacteria” value in assay [1] (strain P. aeruginosa′-5) is on record as “Resistant”.
Take `CO/N=C(\C(=O)N[C@@H]1C(=O)N2C(C(=O)[O-])=C(C[N+]3(C)CCCC3)CS[C@H]12)c1csc(N)n1` [Cefepime]: the “Drug resistance of host bacteria” value in assay [1] (strain B- P. aeruginosa-029), in assay [1] (strain P. aeruginosa-2 (r74)), in assay [1] (strain P. aeruginosa-24), in assay [1] (strain P. aeruginosa-30) and in assay [1] (strain P. aeruginosa′-5) was “Resistant” throughout.
Take Piperacillin/Tazobactam: the “Drug resistance of host bacteria” value in assay [1] (strain B- P. aeruginosa-029), in assay [1] (strain B- P. aeruginosa-037), in assay [1] (strain P. aeruginosa-2 (r74)), in assay [1] (strain P. aeruginosa-14), in assay [1] (strain P. aeruginosa-23) and in assay [1] (strain P. aeruginosa-26) was “Resistant” throughout. Moreover, the “Drug resistance of host bacteria” value in assay [1] (strain P. aeruginosa-30), in assay [1] (strain P. aeruginosa-32), in assay [1] (strain P. aeruginosa′-3), in assay [1] (strain P. aeruginosa′-4), in assay [1] (strain P. aeruginosa′-5) and in assay [1] (strain P. aeruginosa′-6) was “Resistant” throughout. Further, the “Drug resistance of host bacteria” value in assay [1] (strain P. aeruginosa′-15) is given as “Resistant”.
